Experimental data reported in US8846652B2, “Therapeutic uses of steroidal compounds” (Hunter-Fleming Limited, priority 2005, dated 2014).
Peptide text beside a SMILES is read from it.

Tests used:
[1] = system: spared nerve injury (SNI) model of neuropathic pain; test: Spared nerve injury (SNI) model of neuropathic pain, mechanical allodynia by von Frey filaments; format: in vivo, mice; conditions: daily oral gavage for two weeks, SNI lesion on day 8, thresholds measured at 2 pm over 7 days after SNI surgery
Protocol: All animals were fed standard chow and water ad libitum. Animal care and procedures were performed within the United Kingdom Home Office protocols and guidelines. Age (10-12 weeks, 25-30 g) matched adult mice were used in all experiments (n=8/genotype).
Mice were anaesthetised with Hypnorm (Fentanyl citrate 0.315 mg/ml+Fluanisone 10 mg/ml, Jansson):Hypnovel (Midazolam 5 mg/ml, Roche):water at a ratio of 1:1:2 at 4 μl/g. The recently described SNI model of neuropathic pain was used (Holmes et al (2003) Proc. Natl. Acad. Sci. U.S.A. 100 6180-6185). The spared nerve injury model (SNI), is performed by ligation of two branches of the sciatic nerve after it trifurcates, leaving one branch intact. […]
In all tests, the examiner was blind to the genotype of the mice. Mechanical thresholds were measured with a series of calibrated von Frey filaments (Stoeling) from 0.005 g to a maximum of 3.63 g. […] Mechanical sensitivity was assessed on each hind paw, employing the up-down testing paradigm to determine the threshold force required to elicit a withdrawal response to 50% of stimulations [F. E. Holmes, A. Bacon, R. J. Pope, P. A. Vanderplank, N. C. […]
11β-hydroxy-Δ4-androstene-3,17-dione was administered to 8 adult male mice aged 10-12 weeks of age daily at 9.00 am by oral gavage for two weeks. […] At 2 pm on the days when testing took place, mechanosensory thresholds were measured.

[2] = molecular target: T1, GALR1 (Homo sapiens, UniProt P47211); conditions: cited from earlier work
T1 sequence (P47211 1-349): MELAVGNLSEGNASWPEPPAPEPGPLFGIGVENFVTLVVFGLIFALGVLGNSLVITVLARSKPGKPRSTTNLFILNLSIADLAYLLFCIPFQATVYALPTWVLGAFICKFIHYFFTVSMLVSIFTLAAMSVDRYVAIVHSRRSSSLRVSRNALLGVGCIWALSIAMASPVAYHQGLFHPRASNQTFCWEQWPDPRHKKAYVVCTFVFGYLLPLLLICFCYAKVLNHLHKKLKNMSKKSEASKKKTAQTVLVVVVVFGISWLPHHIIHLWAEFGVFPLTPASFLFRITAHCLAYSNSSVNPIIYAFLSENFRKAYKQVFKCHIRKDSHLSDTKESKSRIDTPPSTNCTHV

[3] = molecular target: T2, GALR2 (Homo sapiens, UniProt O43603); conditions: cited from earlier work
T2 sequence (O43603 1-387): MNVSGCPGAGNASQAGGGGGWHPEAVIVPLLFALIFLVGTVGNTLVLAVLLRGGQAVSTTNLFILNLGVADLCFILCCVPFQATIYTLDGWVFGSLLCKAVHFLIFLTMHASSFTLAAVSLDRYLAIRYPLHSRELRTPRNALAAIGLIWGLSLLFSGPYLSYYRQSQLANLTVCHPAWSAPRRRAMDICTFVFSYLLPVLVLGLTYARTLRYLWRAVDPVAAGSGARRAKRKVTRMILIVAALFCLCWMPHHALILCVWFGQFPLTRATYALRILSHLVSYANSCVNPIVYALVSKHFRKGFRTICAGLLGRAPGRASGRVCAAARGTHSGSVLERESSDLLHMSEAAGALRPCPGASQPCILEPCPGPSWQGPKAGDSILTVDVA

| Compound | mechanosensory allodynia (chronic pain behaviour) after SNI surgery [1] | agonistic activity at GALR1 [2] | agonistic activity at GALR2 [3] |
| --- | --- | --- | --- |
| C[C@]12CCC(=O)C=C1CC[C@@H]1[C@@H]2[C@@H](O)C[C@]2(C)C(=O)CC[C@@H]12 [11β-hydroxy-Δ4-androstene-3,17-dione] | markedly and significantly attenuated mechanosensory allodynia |  |  |
| Cc1cc(=O)oc2cc(NC(=O)[C@H](CCCCN)NC(=O)[C@H](CC3CCCCC3)NC(=O)OCC3c4ccccc4-c4ccccc43)ccc12 [galnon] (HELM PEPTIDE1{[O=C(OCC1c2ccccc2-c2ccccc21)[*:2]].[Cha].K.[Cc1cc(=O)oc2cc(N[*:1])ccc12]}$$$$V2.0) |  | equally activates and has agonistic activity | equally activates and has agonistic activity |
